Data as given in the NIST ThermoML archive (doi:10.1016/j.fluid.2008.09.004).

Columns and labels:
[1] = molar heat capacity at constant pressure; conditions: 101.33 kPa, Liquid, Small sample (50 mg) DSC
[2] = 101.33 kPa, Liquid; for mass density: Vibrating tube method; for speed of sound: Sing-around technique in a fixed-path interferometer
[3] = excess molar enthalpy (molar enthalpy of mixing); xn = mol fraction of the nth substance listed; conditions: 303.15 K, 101 kPa, Liquid, Calvet calorimetry

CCCCn1cc[n+](C)c1.COS(=O)(=O)[O-] [1-butyl-3-methylimidazolium methyl sulfate]
Conditions	mass density, [2] [kg/m3]	molar heat capacity at constant pressure, [1] [J/K/mol]
293.15 K	1210.7	413.7
298.15 K	1207.4	416.2
303.15 K	1204.1	418.5
308.15 K	1200.8	420.9
313.15 K	1197.5	423.3
318.15 K	1194.2	425.6

CCCCn1cc[n+](C)c1.F[B-](F)(F)F [1-butyl-3-methylimidazolium tetrafluoroborate]
Conditions	mass density, [2] [kg/m3]	molar heat capacity at constant pressure, [1] [J/K/mol]
293.15 K	1207.6	359.8
298.15 K	1204.1	363.1
303.15 K	1200.5	366.1
308.15 K	1197	368.7
313.15 K	1193.4	371
318.15 K	1189.9	372.9

CCCCn1cc[n+](C)c1.O=S(=O)([O-])C(F)(F)F [1-butyl-3-methylimidazolium trifluoromethanesulfonate]
Conditions	mass density, [2] [kg/m3]	molar heat capacity at constant pressure, [1] [J/K/mol]	speed of sound, [2] [m/s]
293.15 K	1301.6	421.6	1403.4
298.15 K	1297.6	424.1	1392.1
303.15 K	1293.7	426.7	1380.9
308.15 K	1289.7	429.5	1369.8
313.15 K	1285.8	432.4	1358.8
318.15 K	1281.9	435.5	1348.1

CCCC[n+]1cccc(C)c1.F[B-](F)(F)F [1-butyl-3-methylpyridinium tetrafluoroborate]
[2]
Conditions	speed of sound [m/s]
293.15 K	1599.8
298.15 K	1587
303.15 K	1574.8
308.15 K	1562.6
313.15 K	1550.7
318.15 K	1538.9

CCCC[n+]1cccc(C)c1.F[B-](F)(F)F [1-butyl-3-methylpyridinium tetrafluoroborate] + CCO
[3]
Conditions	excess molar enthalpy [kJ/mol]
x1 = 0.0306	0.554
x1 = 0.1031	1.36
x1 = 0.1976	2.02
x1 = 0.3036	2.46
x1 = 0.3966	2.6
x1 = 0.5083	2.5
x1 = 0.6001	2.24
x1 = 0.692	1.88
x1 = 0.8061	1.26
x1 = 0.8847	0.782

CCOS(=O)(=O)[O-].CCn1cc[n+](C)c1 [1-ethyl-3-methylimidazolium ethyl sulfate]
Conditions	mass density, [2] [kg/m3]	molar heat capacity at constant pressure, [1] [J/K/mol]
293.15 K	1240.6	392.2
298.15 K	1237.2	394.4
303.15 K	1233.8	396.8
308.15 K	1230.4	399.3
313.15 K	1227	402
318.15 K	1223.7	404.9

CCn1cc[n+](C)c1.O=S(=O)([O-])C(F)(F)F [1-ethyl-3-methylimidazolium trifluoromethanesulfonate]
Conditions	mass density, [2] [kg/m3]	molar heat capacity at constant pressure, [1] [J/K/mol]
293.15 K	1389.5	361.1
298.15 K	1385.3	363.2
303.15 K	1381.1	365.3
308.15 K	1376.9	367.4
313.15 K	1372.7	369.6
318.15 K	1368.6	371.8

CCCCCCn1cc[n+](C)c1.F[B-](F)(F)F [1-hexyl-3-methylimidazolium tetrafluoroborate]
Conditions	mass density, [2] [kg/m3]	molar heat capacity at constant pressure, [1] [J/K/mol]	speed of sound, [2] [m/s]
293.15 K	1148.8	425.1	1532.7
298.15 K	1145.3	427.8	1519.5
303.15 K	1141.8	430.4	1506.9
308.15 K	1138.4	433	1494.5
313.15 K	1135	435.5	1482.3
318.15 K	1131.6	438.1	1470.5

CCO [ethanol]
Conditions	mass density, [2] [kg/m3]	molar heat capacity at constant pressure, [1] [J/K/mol]	speed of sound, [2] [m/s]
293.15 K	789.6	111.3	1159.5
298.15 K	785.3	113.3	1142.5
303.15 K	781	115.3	1125.5
308.15 K	776.7	117.5	1108.6
313.15 K	772.3	119.7	1091.8
318.15 K	767.8	122.1	1075.1
